Assay results: the supplement of paper PMC10307832

Assays:
Assay in all cases: relative viability (nuclei count vs DMSO), 5 days (fraction); higher = more cells survive
NCI-H1651 = conditions: first compound 4 µM
Summary of the method: (§1)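 Lung cancer cell lines in 1536-well plates got either a single drug or a fixed anchor-drug dose together with five library-drug doses (not always all listed) in √10 steps, by pin tool, on the day after seeding. Nuclei were counted after 5 days, and relative viability is the treated-to-vehicle ratio of nuclei counts. Values are medians of duplicate plates.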

NCI-H2347 = test system: NCI-H2347
Summary of the method: as §1

NCI-H23 = test system: NCI-H23
Summary of the method: as §1

NCI-H460 = test system: NCI-H460
Summary of the method: as §1

NCI-H650 = test system: NCI-H650
Summary of the method: as §1

NCI-H727 = test system: NCI-H727
Summary of the method: as §1

NCI-H838 = test system: NCI-H838
Summary of the method: as §1

PC-14 = test system: PC-14
Summary of the method: as §1

PC-3 [JPC-3] = test system: PC-3 [JPC-3]
Summary of the method: as §1

RERF-LC-KJ = test system: RERF-LC-KJ
Summary of the method: as §1

SW 1573 = test system: SW 1573
Summary of the method: as §1

**Q.** For `Clc1ccc(Nc2nnc(Cc3ccncc3)c3ccccc23)cc1` [Vatalanib] + CC(C)C[C@H](NC(=O)[C@H](Cc1ccccc1)NC(=O)c1cnccn1)B(O)O [Bortezomib] (partner 0.002 µM), which relative viability (NCI-H1651) is on record?
**A.** 0.969

**Q.** And the relative viability (NCI-H2347; first compound 0.1265 µM)?
**A.** 0.898

**Q.** And the relative viability (NCI-H2347; first compound 0.4 µM)?
**A.** 0.855

**Q.** And the relative viability (NCI-H2347; first compound 1.265 µM)?
**A.** 0.973

**Q.** And the relative viability (NCI-H2347; first compound 4 µM)?
**A.** 0.865

**Q.** What about the relative viability (NCI-H23; first compound 0.04 µM) of the same molecule?
**A.** 0.846

**Q.** And the relative viability (NCI-H23; first compound 0.1265 µM)?
**A.** 1.03

**Q.** What about the relative viability (NCI-H23; first compound 0.4 µM) of the same molecule?
**A.** 1.14

**Q.** What about the relative viability (NCI-H23; first compound 1.265 µM) of the same molecule?
**A.** 0.865

**Q.** And the relative viability (NCI-H23; first compound 4 µM)?
**A.** 1.08

**Q.** And the relative viability (NCI-H460; first compound 0.04 µM)?
**A.** 1.07

**Q.** What about the relative viability (NCI-H460; first compound 0.1265 µM) of the same molecule?
**A.** 0.919

**Q.** And the relative viability (NCI-H460; first compound 0.4 µM)?
**A.** 1.03

**Q.** And the relative viability (NCI-H460; first compound 1.265 µM)?
**A.** 1.03

**Q.** What about the relative viability (NCI-H460; first compound 4 µM) of the same molecule?
**A.** 1.02

**Q.** And the relative viability (NCI-H650; first compound 0.04 µM)?
**A.** 0.891

**Q.** And the relative viability (NCI-H650; first compound 0.1265 µM)?
**A.** 0.736

**Q.** And the relative viability (NCI-H650; first compound 1.265 µM)?
**A.** 0.6

**Q.** And the relative viability (NCI-H650; first compound 4 µM)?
**A.** 0.812

**Q.** What about the relative viability (NCI-H727; first compound 0.04 µM) of the same molecule?
**A.** 0.908

**Q.** What about the relative viability (NCI-H727; first compound 0.1265 µM) of the same molecule?
**A.** 0.776

**Q.** And the relative viability (NCI-H727; first compound 0.4 µM)?
**A.** 0.827

**Q.** What about the relative viability (NCI-H727; first compound 1.265 µM) of the same molecule?
**A.** 0.854

**Q.** What about the relative viability (NCI-H727; first compound 4 µM) of the same molecule?
**A.** 0.706

**Q.** And the relative viability (NCI-H838; first compound 0.04 µM)?
**A.** 0.973

**Q.** And the relative viability (NCI-H838; first compound 0.1265 µM)?
**A.** 0.99

**Q.** What about the relative viability (NCI-H838; first compound 0.4 µM) of the same molecule?
**A.** 0.805

**Q.** What about the relative viability (NCI-H838; first compound 1.265 µM) of the same molecule?
**A.** 0.68

**Q.** And the relative viability (NCI-H838; first compound 4 µM)?
**A.** 0.798

**Q.** And the relative viability (PC-14; first compound 0.04 µM)?
**A.** 1.02

**Q.** And the relative viability (PC-14; first compound 0.1265 µM)?
**A.** 0.849

**Q.** And the relative viability (PC-14; first compound 0.4 µM)?
**A.** 0.969

**Q.** What about the relative viability (PC-14; first compound 1.265 µM) of the same molecule?
**A.** 0.852

**Q.** What about the relative viability (PC-14; first compound 4 µM) of the same molecule?
**A.** 0.828

**Q.** What about the relative viability (PC-3 [JPC-3]; first compound 0.04 µM) of the same molecule?
**A.** 0.785

**Q.** And the relative viability (PC-3 [JPC-3]; first compound 0.1265 µM)?
**A.** 0.828

**Q.** And the relative viability (PC-3 [JPC-3]; first compound 0.4 µM)?
**A.** 0.82

**Q.** What about the relative viability (PC-3 [JPC-3]; first compound 1.265 µM) of the same molecule?
**A.** 0.856

**Q.** And the relative viability (PC-3 [JPC-3]; first compound 4 µM)?
**A.** 0.721

**Q.** And the relative viability (RERF-LC-KJ; first compound 0.04 µM)?
**A.** 1.05

**Q.** And the relative viability (RERF-LC-KJ; first compound 0.1265 µM)?
**A.** 1.1

**Q.** What about the relative viability (RERF-LC-KJ; first compound 0.4 µM) of the same molecule?
**A.** 0.958

**Q.** And the relative viability (RERF-LC-KJ; first compound 1.265 µM)?
**A.** 0.904

**Q.** And the relative viability (RERF-LC-KJ; first compound 4 µM)?
**A.** 0.969

**Q.** And the relative viability (SW 1573; first compound 0.04 µM)?
**A.** 1.15

**Q.** What about the relative viability (SW 1573; first compound 0.1265 µM) of the same molecule?
**A.** 0.96

**Q.** And the relative viability (SW 1573; first compound 0.4 µM)?
**A.** 1.21

**Q.** And the relative viability (SW 1573; first compound 1.265 µM)?
**A.** 0.972

**Q.** What about the relative viability (SW 1573; first compound 4 µM) of the same molecule?
**A.** 1.09
